In patent publication US20070031815A1, “Screening method for identifying hsp90 modulators” (University of Liverpool, priority 2003, published 2007):

Tested on: yeast cells
Experiment: Entry of known Hsp90 inhibitors into yeast cells
Type: cell-based
Conditions: not given
Excerpt: Yeast have many advantages in development of screening systems or biosensors-compared to mammalian cells they are robust; easy and cheap to grow; genetically stable; and represent a reduced health risk to workers (viral contamination of cell lines becomes an issue in low cost high throughput screening). […] However, yeast are not always permeable to compounds that would be able to enter mammalian cells. […] This problem has been overcome in the past by using yeast mutants that have enhanced sensitivity to toxic chemicals. These mutations are in genes described as Pleiotrophic Drug Resistance (PDR) or Multiple Drug Resistance (MDR) gene. One class of PDR genes are those affecting the ergosterol balance in the yeast membrane. Mammalian cells have cholesterol in the plasma membrane while yeast have ergosterol. Mutations in the gene ERG6 (ISE1) cause cells to become sensitive to a range of lipophilic drugs. Another class of mutations affect active drug uptake or efflux, for example mutations to the ATP dependent efflux pump PDR5 increase drug sensitivity. A combination of mutations from these different pathways further increases sensitivity. In addition to increasing permeability of the plasma membrane and reducing efflux better drug entry can also be brought about by changing the cell wall structure, this can also increase osmotic sensitivity, which facilitates release of proteins. Mutation of the GDP-mannose phosphorylase (SRB1) interferes with the glycosylation of cell wall proteins, this increases drug and osmotic sensitivity. Hsp90 itself is also involved in the maintenance of cell wall integrity via its functional interaction with Ste11. Ste11 is a MAPKKK that normally activates the MAPKK Pbs2 which in turn activates the Hog-1 transcriptional activator. Hog-1 activation modifies the cell wall in response to osmotic shock, disruption of Hog-1 causes drug and osmotic sensitivity. There are also dominant mutations which increase sensitivity to cytotoxic agents, such as ISE2 which increases sensitivity to a range of topoisomerase II inhibitors.

Compound | entry into yeast cells
CO[C@H]1[C@@H](OC)C[C@H](C)[C@@H](OC)C2=CC(=O)C=C(NC(=O)/C(C)=C/C=C\[C@H](C)[C@@H](OC(N)=O)/C(C)=C/[C@@H]1C)C2=O [Macbecin, Macbecin I] | enter yeast cells easily

Same assay, conditions: yeast permeability

Compound | entry into yeast cells
C=CCNC1=C2C[C@@H](C)C[C@H](OC)[C@H](O)[C@@H](C)/C=C(\C)[C@H](OC(N)=O)[C@@H](OC)/C=C\C=C(/C)C(=O)NC(=CC1=O)C2=O [Compound 17-AAG, 17-allylamino demethoxy geldanamycin] | enter yeast cells easily
COC1=C2C[C@@H](C)C[C@H](OC)[C@H](O)[C@@H](C)/C=C(\C)[C@H](OC(N)=O)[C@@H](OC)/C=C\C=C(/C)C(=O)NC(=CC1=O)C2=O [GA, Geldanamycin] | enter yeast cells easily
CO[C@H]1[C@@H](OC)C[C@H](C)[C@@H](OC)C2=CC(=O)C=C(NC(=O)/C(C)=C/C=C\[C@H](OC)[C@@H](OC(N)=O)/C(C)=C/[C@@H]1C)C2=O [Herbimycin] | enter yeast cells easily
CO[C@@H]1[C@@H](OC(N)=O)[C@@H](O)[C@H](Oc2ccc3c(O)c(NC(=O)c4ccc(O)c(CC=C(C)C)c4)c(=O)oc3c2C)OC1(C)C [Novobiocin] | enter yeast cells easily
C[C@@H]1C[C@H]2O[C@@H]2/C=C\C=C\C(=O)Cc2c(Cl)c(O)cc(O)c2C(=O)O1 [Radicicol] | enter yeast cells easily
